{
  "source": "patent US12576166B2",
  "about": "“Contrast agents for detection of enzyme activities based on melanin synthesis” (BOARD OF REGENTS, THE UNIVERSITY OF TEXAS SYSTEM, priority 2020, dated 2026)",
  "biological_target": "cathepsin B (Homo sapiens, UniProt P07858)",
  "assay": "Incubation of Agent 6 with cathepsin B; product read by colour, MSOT and absorbance",
  "format": "biochemical",
  "details": "pH 6.8, 37° C., overnight",
  "procedure": "We incubated 2.22 mg/mL ([…], 0.1 mL) of Agent 6 with 2 units of cathepsin B at pH 6.8 and at 37° C. overnight. Although cathepsin B is typically considered to be an endoprotease, this enzyme can work as an exoprotease at lower pH relative to physiological pH 7.4. Also, the extracellular tumor microenvironment is known to be acidic, so that pH 6.8 is a better representation of tumor conditions.\nOther samples of were prepared at 1.66, 1.11, 0.84, and 0.55 mg/mL. These solutions were inserted into a customized phantom for a multi spectral optoacoustic imaging instrument (MSOT; also known as photoacoustic imaging) (InVision instrument, iThera Medical). FIG. 12A-FIG. 12D present MSOT or absorbance spectra data for the various concentrations.\nThe phantoms were imaged at 700-900 nm absorbance wavelengths in 2 nm steps. (FIG. 12A). The samples were also analyzed with a spectrofluorometer with absorbance through the same wavelength range (FIG. 12B), which matched the spectral profile and relative signal intensities of the MSOT spectra. The spectra were broad and featureless, which is expected for a melanin-based product. The signal to noise ratio (SNR) scaled with the concentration of the reactant, providing validation that the MSOT and absorbance signals were derived from the product and was not an artifact of the solution or imaging instrument (FIG. 12C, FIG. 12D).",
  "data": [
    {"smiles": "CC(=O)NC(Cc1ccccc1)C(=O)NC(CCCCN)C(=O)Nc1ccc(COc2cc3cc[nH]c3cc2O)cc1", "note": "(centres unmarked) [Agent 6]", "values": [
      {"measurement": "colour of the resulting solution (indicating melanin produced after cleavage by cathepsin B)", "setting": "2.22 mg/mL Agent 6, 2 units of cathepsin B", "value": "light gray color"},
      {"measurement": "cleavage by cathepsin B to a melanin-based product detectable by MSOT", "setting": "MSOT 700-900 nm, preliminary results", "value": "cleaved by cathepsin B to create a melanin-based product that can be detected by MSOT"}
    ]}
  ]
}
